# Patent US9399646B2 (Genentech, Inc., priority 2010, dated 2016)
# Assays:
# ER-α in MCF-7 cells = target: T1, ER-α in MCF-7 cells (Homo sapiens, UniProt P03372); experiment: Breast cancer cell ER-α in cell western assay (SP1); assay type: cell-based; design: endogenous in cells; host or cells: MCF-7; details: 4 or 24 hr post compound addition; for Emax: MCF7, SP1 antibody, read-out: ER-α In Cell Western Assay (SP1) Max Response; for DC50: SP1 antibody, read-out: ER-α In Cell Western Assay (SP1) IC50
# T1 sequence (P03372 1-595): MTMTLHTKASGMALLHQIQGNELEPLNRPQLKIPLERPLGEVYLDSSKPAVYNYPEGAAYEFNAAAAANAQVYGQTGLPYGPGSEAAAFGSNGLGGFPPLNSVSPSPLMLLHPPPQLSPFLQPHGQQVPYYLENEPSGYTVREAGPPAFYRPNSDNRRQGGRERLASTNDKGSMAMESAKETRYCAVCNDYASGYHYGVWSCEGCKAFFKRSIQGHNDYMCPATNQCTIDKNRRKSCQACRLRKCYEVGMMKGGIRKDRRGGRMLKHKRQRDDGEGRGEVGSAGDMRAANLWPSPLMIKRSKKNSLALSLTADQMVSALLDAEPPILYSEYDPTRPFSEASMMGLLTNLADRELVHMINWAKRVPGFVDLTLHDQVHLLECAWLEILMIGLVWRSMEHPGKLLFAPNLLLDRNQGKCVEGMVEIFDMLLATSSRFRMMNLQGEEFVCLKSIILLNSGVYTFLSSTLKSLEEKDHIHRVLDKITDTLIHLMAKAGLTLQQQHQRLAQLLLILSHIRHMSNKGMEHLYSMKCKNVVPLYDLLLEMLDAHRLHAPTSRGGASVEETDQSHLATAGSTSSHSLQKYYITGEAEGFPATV
# Summary of the method: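 Read-out is infrared in-cell western: SP1-detected ER intensity at 800 nm divided by DRAQ5 DNA intensity at 700 nm, relative to untreated wells ×100.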
# MCF-7 cells = experiment: Breast cancer cell viability assay (CellTiter-Glo, 5 days); assay type: cell-based; details: 5 days' compound exposure; for IC50: Homo sapiens, MCF7, 120 h
# Summary of the method: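 Eleven-point semilog compound series, final 0.3-0.000003 μM, added to overnight-adhered MCF-7 cells (320/well; RPMI, 10% FBS, 20 mM HEPES) for 5 days. Viability read by CellTiter-Glo luminescence, background from medium without cells subtracted, expressed relative to untreated cells.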
SMILES,Emax (ER-α in MCF-7 cells),DC50 (ER-α in MCF-7 cells),IC50 (MCF-7 cells),MCF7 Viability Assay Max Response (MCF-7 cells)
"CC/C(=C(/c1ccc(/C=C/C(=O)O)cc1)c1ccc2[nH]nc(F)c2c1)c1cscc1C [Compound 312, (E)-3-(4-((E)-1-(3-Fluoro-1H-indazol-5-yl)-2-(4-methylthiophen-3-yl)but-1-en-1-yl)phenyl)acrylic acid]",≥ 40%,≤ 100 nM,≤ 100 nM,++ (++ = a single % value ≧ 40%)
"CC/C(=C(/c1ccc(/C=C/C(=O)O)cc1)c1ccc2[nH]ncc2c1)c1cccnc1C(F)(F)F [Compound 222, (E)-3-(4-((E)-1-(1H-Indazol-5-yl)-2-(2-(trifluoromethyl)pyridin-3-yl)but-1-en-1-yl)phenyl)acrylic acid]",≥ 40%,≤ 100 nM,≤ 100 nM,++ (++ = a single % value ≧ 40%)
"CCCS(=O)(=O)NC(=O)/C=C/c1ccc(/C(=C(/CC)c2ccc(F)cc2Cl)c2ccc3[nH]ncc3c2)cc1 [Compound 409, (E)-3-(4-((E)-2-(2-Chloro-4-fluorophenyl)-1-(1H-indazol-5-yl)but-1-en-1-yl)phenyl)-N-(propylsulfonyl)acrylamide]",≥ 40%,≤ 100 nM,≤ 100 nM,++ (++ = a single % value ≧ 40%)
"CC/C(=C(/c1ccc(/C=C/C(=O)O)cc1)c1ncc2[nH]ncc2n1)c1ccccc1 [Compound 149, (E)-3-(4-((E)-2-Phenyl-1-(1H-pyrazolo[4,3-d]pyrimidin-5-yl)but-1-en-1-yl)phenyl)acrylic acid]",≥ 40%,> 100 nM,> 100 nM,+ (+ = a single % value < 40%)
"CC/C(=C(/c1ccc(/C=C/C(=O)O)cc1)c1ccc2[nH]ncc2c1)c1cccc(-c2cscn2)c1 [Compound 392, (E)-3-(4-((E)-1-(1H-Indazol-5-yl)-2-(3-(thiazol-4-yl)phenyl)but-1-en-1-yl)phenyl)acrylic acid]",≥ 40%,≤ 100 nM,≤ 100 nM,++ (++ = a single % value ≧ 40%)
"CC/C(=C(/c1ccc(/C=C/C(=O)O)cc1)c1coc2c(O)cccc12)c1ccc(F)cc1Cl [Compound 450, (E)-3-(4-((E)-2-(2-Chloro-4-fluorophenyl)-1-(7-hydroxybenzofuran-3-yl)but-1-en-1-yl)phenyl)acrylic acid]",≥ 40%,≤ 100 nM,≤ 100 nM,++ (++ = a single % value ≧ 40%)
"CC/C(=C(/c1ccc(/C=C/C(=O)O)cc1)c1ccc2[nH]ncc2c1)c1ccc(Nc2ccccc2)cc1 [Compound 397, (E)-3-(4-((E)-1-(1H-Indazol-5-yl)-2-(4-(phenylamino)phenyl)but-1-en-1-yl)phenyl)acrylic acid]",≥ 40%,≤ 100 nM,≤ 100 nM,++ (++ = a single % value ≧ 40%)
"CC/C(=C(/c1ccc(/C=C/C(=O)O)cc1)c1cnc2[nH]ccc2c1)c1ccccc1 [Compound 68, (E)-3-(4-((E)-2-Phenyl-1-(1H-pyrrolo[2,3-b]pyridin-5-yl)but-1-en-1-yl)phenyl)acrylic acid]",≥ 40%,> 100 nM,> 100 nM,++ (++ = a single % value ≧ 40%)
"CC/C(=C(/c1ccc(/C=C/C(=O)O)cc1)c1cccc2[nH]ncc12)c1ccccc1 [Compound 18, (E)-3-(4-((E)-1-(1H-Indazol-4-yl)-2-phenylbut-1-en-1-yl)phenyl)acrylic acid]",≥ 40%,–,≤ 100 nM,++ (++ = a single % value ≧ 40%)
"CC/C(=C(/c1ccc(/C=C/C(=O)NS(C)(=O)=O)cc1)c1ccc2scnc2c1)c1ccc(F)cc1Cl [Compound 416, (E)-3-(4-((E)-1-(Benzo[d]thiazol-5-yl)-2-(2-chloro-4-fluorophenyl)but-1-en-1-yl)phenyl)-N-(methylsulfonyl)acrylamide]",≥ 40%,≤ 100 nM,≤ 100 nM,++ (++ = a single % value ≧ 40%)

# The next lines start with results.
Emax (ER-α in MCF-7 cells),DC50 (ER-α in MCF-7 cells),IC50 (MCF-7 cells),SMILES,MCF7 Viability Assay Max Response (MCF-7 cells)
≥ 40%,≤ 100 nM,≤ 100 nM,"CC/C(=C(/c1ccc(OC[C@H](C)N2CC[C@@H](C)C2)cc1)c1ccc2[nH]ncc2c1)c1ccncc1Cl [Compound 331, 5-((E)-2-(3-Chloropyridin-4-yl)-1-(4-((S)-2-((R)-3-methylpyrrolidin-1-yl)propoxy)phenyl)but-1-en-1-yl)-1H-indazole]",++ (++ = a single % value ≧ 40%)
≥ 40%,> 100 nM,> 100 nM,"CC/C(=C(/c1ccc(/C=C/C(=O)O)cc1)c1ccc2nccnc2c1)c1ccccc1 [Compound 124, (E)-3-(4-((E)-2-Phenyl-1-(quinoxalin-6-yl)but-1-en-1-yl)phenyl)acrylic acid]",+ (+ = a single % value < 40%)
≥ 40%,≤ 100 nM,≤ 100 nM,"O=C(/C=C/c1ccc(/C(=C(\c2ccccc2)C2CCC2)c2ccc3[nH]nc(F)c3c2)cc1)NC1CC1 [Compound 413, (E)-3-(4-((E)-2-Cyclobutyl-1-(3-fluoro-1H-indazol-5-yl)-2-phenylvinyl)phenyl)-N-cyclopropylacrylamide]",++ (++ = a single % value ≧ 40%)
≥ 40%,≤ 100 nM,≤ 100 nM,"CC/C(=C(/c1ccc(/C=C/C(=O)O)cc1)c1ccc2[nH]ncc2c1)c1ccc(Oc2ccccc2)cc1 [Compound 263, (E)-3-(4-((E)-1-(1H-Indazol-5-yl)-2-(4-phenoxyphenyl)but-1-en-1-yl)phenyl)acrylic acid]",++ (++ = a single % value ≧ 40%)
≥ 40%,> 100 nM,> 100 nM,"CC/C(=C(/c1ccc(/C=C/C(=O)O)cc1)c1ccc2[nH]ncc2c1)c1ccccn1 [Compound 25, (E)-3-(4-((E)-1-(1H-Indazol-5-yl)-2-(pyridin-2-yl)but-1-en-1-yl)phenyl)acrylic acid]",++ (++ = a single % value ≧ 40%)
≥ 40%,≤ 100 nM,≤ 100 nM,"O=C(O)/C=C/c1ccc(/C(=C(\c2ccncc2Cl)C2CCC2)c2ccc3[nH]ncc3c2)cc1 [Compound 305, (E)-3-(4-((E)-2-(3-Chloropyridin-4-yl)-2-cyclobutyl-1-(1H-indazol-5-yl)vinyl)phenyl)acrylic acid]",++ (++ = a single % value ≧ 40%)
≥ 40%,–,> 100 nM,"CC/C(=C(/c1ccc(/C=C/C(=O)O)nc1)c1ccc2[nH]ncc2c1)c1ccccc1 [Compound 189, (E)-3-(5-((Z)-1-(1H-Indazol-5-yl)-2-phenylbut-1-en-1-yl)pyridin-2-yl)acrylic acid]",++ (++ = a single % value ≧ 40%)
≥ 40%,≤ 100 nM,≤ 100 nM,"CC/C(=C(/c1ccc(/C=C/C(=O)O)cc1)c1ccc2[nH]ncc2c1)c1cccc(Oc2ccncc2)c1 [Compound 366, (E)-3-(4-((E)-1-(1H-Indazol-5-yl)-2-(3-(pyridin-4-yloxy)phenyl)but-1-en-1-yl)phenyl)acrylic acid]",++ (++ = a single % value ≧ 40%)
